From EP3833345B1, “SMALL MOLECULE-INHIBITORS OF 6-PHOSPHOFRUCTO-1-KINASE FOR REDUCING LACTATE GENERATION BY CANCER CELLS” (Kemijski Institut, priority 2018, dated 2020)

Tests used:
Format in all cases: cell-based
Caco-2 cells [1] = test: lactate excretion by Caco-2 cells; conditions: single addition, different concentrations (20-80 µM)
Method: Preliminary in vivo tests were run by measuring lactate production by three different tumorigenic cell lines. […] For the experiment, the following tumorigenic cells lines originating from different tumours were tested: Caco-2 cells (Figure 10a), originating from colorectal adenoma carcinoma; COLO 829 cells (Figure 10b), isolated from melanoma; and MDA-MB-231 cells (Figure 10c) derived from metastatic phase of mammary/breast cancer.
(§1) Lactate generation, growth yield and survival under normal and inhibitory conditions of three different tumorigenic cells lines were determined in more detailed measurements. […] Cytotoxicity was measured by the Lactate dehydrogenase (LDH) kit (Roche).
Therefore, the influence of selected inhibitors was assessed by sequential re-insertion of low concentrations of inhibitors at indicated time points. The inhibitors were first added to the medium 8 hours after the inoculation followed by periodically additions at 24-hour intervals (marked by arrows).

COLO 829 cells [2] = test: lactate excretion by COLO 829 cells
Method: (§2) Preliminary in vivo tests were run by measuring lactate production by three different tumorigenic cell lines. Again, 100 µM concentrations of tested compounds have been added to the medium. For the experiment, the following tumorigenic cells lines originating from different tumours were tested: Caco-2 cells (Figure 10a), originating from colorectal adenoma carcinoma; COLO 829 cells (Figure 10b), isolated from melanoma; and MDA-MB-231 cells (Figure 10c) derived from metastatic phase of mammary/breast cancer. All adherent cell lines were grown in the RPMI 1640 GlutaMAX substrate (Thermo Fisher) supplemented with 10% FBS.
On the basis of preliminary results, inhibitors No. 23, 29, 30 and 31 were tested on COLO 829 cells. […] No significant discrepancies of total cell numbers in respect to the control were observed due to the different concentrations of inhibitors in the medium (Figure 13e). The average percent of dead COLO 829 cells in the control and in the presence of different concentrations of inhibitors were as follows: inh. 23 (9,23±0,6%), inh. 29 (9,31±0,73%), inh. 30 (8,27±0,49%), inh. 31 (8,26±0,38%). Additionally, cytotoxicity of inh. 3 (5,01±1,08%) and 9 (3,65±0,78%) for COLO 829 cells were also determined. No dose dependent decrease of survival was observed by any inhibitor.
(§3) A decrease in inhibitory effectiveness of some compounds was observed after certain period of time (Example 11). […] Therefore, the influence of selected inhibitors was assessed by sequential re-insertion of low concentrations of inhibitors at indicated time points. The inhibitors were first added to the medium 8 hours after the inoculation followed by periodically additions at 24-hour intervals (marked by arrows).
No significant cytostatic (Figure 16f) of cytotoxic effect of inhibitors could be detected after 92 hours of incubation despite of sequential addition of various concentrations of inhibitors. The following average percentages of dead cells were perceived in the medium without and media with inh. 3 (1,95±0,15%) inh. 9 (1,70±0,14%), inh. 23 (2,40±0,09%), inh. 29 (1,66±0,25%) and inh. 30 (1,38±0,18%). No detrimental effects of increased inhibitors concentrations on cell deaths have been observed.

MDA-MB-231 cells [3] = test: lactate excretion by MDA-MB-231 cells; conditions: single addition, different concentrations
Method: as §2
(§4) Inhibitors No. 23, 29, 30 and 31 were tested for preventing lactate generation by the MDA-MB-231 cells. […] No significant discrepancies of total cell numbers were observed (Figure 14e) due to the different concentrations of inhibitors in the medium. […] The average percent of dead MDA-MB-231 cells in the control and in the presence of different concentrations of inhibitors were as follows: inh. 23 (2,98±0,2%), inh. 29 (3,37±0,39%), inh. 30 (3,4±0,21%), inh. 31 (6,87±0,44%). Additionally, cytotoxicity of inh. 3 (7,2±0,47%) and 9 (6,59±0,29%) for MDA-MB-231 cells were also determined. No dose dependent decrease of survival was observed by any inhibitor.
as §3
(§5) In MDA-MB-231 calls similar results to those found in Caco-2 cells were observed. […] No significant cytostatic (Figure 17f) or cytotoxic effect of inhibitors could be detected after 92 hours of incubation despite of sequential addition of various concentrations of inhibitors. The following average percentages of dead cells were perceived in the medium without and with inh. 3 (2,05±0,18%), inh. 9 (1,85±0,05%), inh. 23 (2,20±0,15%), inh. 29 (1,54±0,16%) and inh. 30 (2,00±0,18%). No detrimental effects of increased inhibitors concentrations on cell deaths have been observed.

Caco-2 cells [4] = test: cytotoxicity in Caco-2 cells (lactate dehydrogenase (LDH) kit)
Method: as §1

COLO 829 cells [5] = test: cytotoxicity in COLO 829 cells (LDH kit)
Method: as §1

MDA-MB-231 cells [6] = test: cytotoxicity in MDA-MB-231 cells (LDH kit)
Method: as §1
Inhibitors No. 23, 29, 30 and 31 were tested for preventing lactate generation by the MDA-MB-231 cells.

Caco-2 cells [7] = test: total cell numbers of Caco-2 cells at end of incubation; conditions: single addition, end of incubation (92 hours)
Method: as §1

MDA-MB-231 cells [8] = test: total cell numbers of MDA-MB-231 cells at end of incubation; conditions: single addition, different concentrations
Method: as §4, §5

[9] = sequential addition at 24-hour intervals, 92 hours, average over medium without and with inhibitor
[10] = single addition, average over control and different concentrations of inhibitor

## O=C(CCS(=O)(=O)c1ccc(Cl)cc1)Nc1nnc(-c2ccno2)o1 [Inhibitor No. 29, 3-(4-chlorophenyl)sulfonyl-N-(5-isoxazol-5-yl-1,3,4-oxadiazol-2-yl)propanamide]
Caco-2 cells [1]
  lactate generation by Caco-2 cells: effectively reduced the lactate accumulation in the medium in a dose dependent manner
COLO 829 cells [2]; inhibitor added 8 hours after inoculation, then at 24-hour intervals, low concentrations (from 10 µM)
  lactate formation in COLO 829 cells, sequential re-insertion: slightly weaker inhibitions
COLO 829 cells [2]; single addition, different concentrations
  lactate excretion by COLO 829 cells: strongest reductions of lactate excretion
MDA-MB-231 cells [3]
  lactate excretion by MDA-MB-231 cells: dose dependent inhibition of lactate excretion
Caco-2 cells [4]; [9]
  average percentages of dead cells, Caco-2, sequential re-insertion: 4,57±0,04%
Caco-2 cells [4]; [10]
  average percent of dead cells, Caco-2: 4,95±0,27%
COLO 829 cells [5]; [9]
  average percentages of dead cells, COLO 829, sequential re-insertion: 1,66±0,25%
COLO 829 cells [5]; [10]
  average percent of dead COLO 829 cells: 9,31±0,73%
MDA-MB-231 cells [6]; [9]
  average percentages of dead cells, MDA-MB-231, sequential re-insertion: 1,54±0,16%
MDA-MB-231 cells [6]; [10]
  average percent of dead MDA-MB-231 cells: 3,37±0,39%
Caco-2 cells [7]
  total cell numbers, Caco-2: minor dose dependent reductions in total cell numbers
MDA-MB-231 cells [8]
  total cell numbers, MDA-MB-231: dose dependent decrease of cell numbers
